Results reported in patent publication US11071317B2, “Sweetness enhancement” (Givaudan, S.A., priority 2015, dated 2021).
“And” between values parts separate entries of the source, which are not always exact repeats. Identical values can stand only once.

Columns and labels:
Format in all cases: in vivo
trained panelists = experiment: Descriptor scoring (overall, upfront, delayed, lingering sweet; 100-point scale) of 80 ppm Reb-A in water with 4% cellobiose
Experimental: The test was carried out by a panel of 14 trained panelists. The panelists scored 4 descriptors (overall sweet, upfront sweet, delayed sweet and lingering sweet) on a 100-point scale over 4 replications for a total of […].

expert tasters [1] = experiment: Expert taster comparison, carbonated lemon lime beverage (sodium benzoate, 90 ppm Sucralose, citric acid) with 4% cellobiose vs base; details: carbonated water, 2000 ppm sodium benzoate, 500 ppm citric acid, 850 ppm lemon lime flavor
Experimental: (§1) Samples were evaluated by a panel of 7 expert tasters. Tasters were asked to compare the base (carbonated water, 2000 ppm sodium benzoate, 90 ppm Sucralose, 500 ppm citric acid, 850 ppm lemon lime flavor) with the model beverage (water, 2000 ppm sodium benzoate, 90 ppm Sucralose, 500 ppm citric acid, 850 ppm lemon lime flavor, 4% cellobiose) focusing on the overall quality of sweetness, particularly on the enhancement of the upfront sweetness, overall sweetness intensity.

expert tasters [2] = experiment: Expert taster comparison, model beverage: water, 200 ppm sucralose, 2% cellobiose vs base
Experimental: (§2) Samples were evaluated by a panel of 7 expert tasters. Tasters were asked to compare the base (200 ppm of sucralose) with the model beverage (water, 200 ppm of sucralose, 2% cellobiose) focusing on the overall quality of sweetness, particularly on the enhancement of the upfront sweetness, overall sweetness intensity.

[3] = Sweetness and mouthfeel equivalence of sucrose + cellobiose solutions to sucrose solutions (general statement)
expert tasters [4] = experiment: Expert taster comparison, plain zero-fat yoghurt with 90 ppm sucralose and 4% cellobiose vs base; details: 90 ppm sucralose
Experimental: (§3) In a plain zero-fat yoghurt, sweetened with sucralose (90 ppm), cellobiose was tested at 4% for sweetness enhancement. Samples were evaluated by a panel of 6 expert tasters. Tasters were asked to compare the base (plain yoghurt+90 ppm sucralose) with the model yoghurt (plain yoghurt, 90 ppm sucralose, 4% cellobiose) focusing on the overall quality of sweetness.

[5] = test system: sweet sensitive panelists; experiment: Ranking of 4% cellobiose against sucrose standards (1% and 1.5%) in water for overall sweetness intensity, r-index analysis
Excerpt: 20 sweet sensitive panelists ranked 4% cellobiose and sucrose standards (1% and 1.5%) for overall sweetness intensity over 2 replications for a total of 40 observations.

expert tasters [6] = experiment: Expert taster comparison, lemon lime beverage (water, sodium benzoate, 180 ppm Reb-A, citric acid) with 4% cellobiose vs base, panel of 8 (Example 12); details: 2000 ppm sodium benzoate, 500 ppm citric acid, 850 ppm lemon lime flavor
Experimental: (§4) Samples were evaluated by a panel of 8 expert tasters. Tasters were asked to compare the base (water, 2000 ppm sodium benzoate, 180 ppm Reb-A, 500 ppm citric acid, 850 ppm lemon lime flavor) with the model beverage (water, 2000 ppm sodium Benzoate, 180 ppm Reb-A, 500 ppm citric acid, 850 ppm lemon lime flavor, 4% cellobiose) focusing on the overall quality of sweetness, particularly on the enhancement of the upfront sweetness, overall sweetness intensity.

expert tasters [7] = experiment: Expert taster comparison, model beverage: water, 5% sucrose, 0.1% cellobiose vs base
Experimental: as §2, with “9” for “7”, “(water with 5%” for “(200 ppm”, “sucrose)” for “sucralose)”, “5%” for “200 ppm”, “sucrose, and 0.1%” for “sucralose, 2%”

expert tasters [8] = experiment: Expert taster comparison, model beverage: water, 7% sucrose, 2% cellobiose vs base
Experimental: as §2, with “6” for “7”, “(water with 7%” for “(200 ppm”, “sucrose)” for “sucralose)”, “7%” for “200 ppm”, “sucrose, and” for “sucralose,”

[9] = test system: sweet sensitive panelists; experiment: Ranking of 5% sucrose+4% cellobiose against sucrose standards (6%, 7% and 8%) in water for overall sweetness intensity, r-index analysis; details: 4% cellobiose in combination with 5% sucrose
Excerpt: 20 sweet sensitive panelists rank ranked 5% sucrose+4% cellobiose and sucrose standards (6%, 7% and 8%) in water for overall sweetness intensity over 2 replications for a total of 40 observations. […] The expected sucrose equivalence (SE) of 4% cellobiose on top of 5% sucrose would be 6.25% (1.25%+5%) but the perceived SE was 7%, showing true sweetness enhancement.

expert tasters [10] = experiment: Expert taster comparison, lemon lime beverage (water, sodium benzoate, 90 ppm sucralose, citric acid) with 4% cellobiose vs base; details: 2000 ppm sodium benzoate, 500 ppm citric acid, 850 ppm lemon lime flavor
Experimental: as §1, with “6” for “7”, “(water,” for “(carbonated water,”, “sucralose,” for “Sucralose,”

expert tasters [11] = experiment: Expert taster comparison, lemon lime beverage (water, sodium benzoate, 180 ppm Reb-A, citric acid) with 4% cellobiose vs base, panel of 7 (Example 11); details: 2000 ppm sodium benzoate, 500 ppm citric acid, 850 ppm lemon lime flavor
Experimental: as §4, with “of 7” for “of 8”

expert tasters [12] = experiment: Expert taster comparison, plain zero-fat yoghurt with 180 ppm RebA and 4% cellobiose vs base; details: 180 ppm RebA
Experimental: Yoghurt RebA 180 ppm+4% cellobiose
as §3, with “rebaudioside A (180” for “sucralose (90”, “yoghurt+180” for “yoghurt+90”, “RebA)” for “sucralose)”, “180” for “90”, “RebA” for “sucralose,”

expert tasters [13] = experiment: Expert taster comparison, model beverage: water, 5% sucrose, 2% cellobiose vs base
Experimental: as §2, with “13” for “7”, “(water with 5%” for “(200 ppm”, “sucrose)” for “sucralose)”, “5%” for “200 ppm”, “sucrose, and” for “sucralose,”

expert tasters [14] = experiment: Expert taster comparison, model beverage: water, 95 ppm sucralose, 2% cellobiose vs base
Experimental: as §2, with “8” for “7”, “(95” for “(200”, “95” for “200”

[15] = 4% cellobiose added to 80 ppm Reb-A in water, vs unaltered 80 ppm Reb-A base

## OC[C@H]1O[C@@H](O[C@H]2[C@H](O)[C@@H](O)C(O)O[C@@H]2CO)[C@H](O)[C@@H](O)[C@@H]1O (mixture of isomers) [cellobiose]
Trained panelists; [15]
  delayed sweetness: significantly decreased
  lingering sweetness: significantly decreased
  overall sweetness: significantly increased
  upfront sweetness: significantly increased
Trained panelists; 80 ppm Reb-A and 4% cellobiose, vs isosweet 150 ppm Reb-A sample
  upfront sweetness: significantly increased
Trained panelists; aqueous solution of 80 ppm Reb-A and 4% cellobiose
  Reb-A aqueous solution of the same sweetness: 150 ppm Reb-A
Expert tasters [1]
  aroma profile: rounded aroma profile
  mouthfeel: improved mouthfeel
  sweetness enhancement: significant sweetness enhancement
  upfront sweetness enhancement: upfront sweetness enhancement
Expert tasters [2]
  mouthfeel: better mouthfeel
  offnotes: decreased offnotes
  profile: rounded profile
  sweetness enhancement: significant sweetness enhancement
  upfront sweetness enhancement: upfront sweetness enhancement
[3]; solution of 2% sucrose and 4% cellobiose
  sucrose solution of similar sweetness and mouthfeel characteristics: ~4 % sucrose
[3]; solution of 5% sucrose+4% cellobiose
  sucrose solution of very similar taste: ~7 % sucrose
[3]; solution of 7% sucrose+4% cellobiose
  sucrose solution of very similar taste: ~9 % sucrose
Expert tasters [4]
  balance and quality of sweetness: significantly improved balance and quality of sweetness
  sweetness: much sweeter
[5]; 4% cellobiose
  sweetness rated as sweet as sucrose: 1.25 % sucrose
[5]; 4% cellobiose in water
  inherent sweetness on its own: not inherently sweet
[5]; 4% cellobiose in water, r-index analysis, 95% confidence level, p-value<0.05
  overall sweetness intensity relative to sucrose standards: < 1.5 % sucrose and > 1.0 % sucrose
Expert tasters [6]
  aroma profile: rounded aroma profile
  mouthfeel: improved mouthfeel
  sweetness enhancement: significant sweetness enhancement
  upfront sweetness enhancement: upfront sweetness enhancement
Expert tasters [7]
  profile: rounded profile
  sweetness enhancement: significant sweetness enhancement
Expert tasters [8]
  profile: rounded profile
  sweetness enhancement: significant sweetness enhancement
  upfront sweetness enhancement: upfront sweetness enhancement
[9]
  sweetness enhancement: sweetness enhancement beyond an additive effect
Expert tasters [10]
  aroma profile: rounded aroma profile
  sweetness enhancement: significant sweetness enhancement
  upfront sweetness enhancement: upfront sweetness enhancement
Expert tasters [11]
  aroma profile: rounded aroma profile
  mouthfeel: improved mouthfeel
  sweetness enhancement: significant sweetness enhancement
  upfront sweetness enhancement: upfront sweetness enhancement
Expert tasters [12]
  overall balance and quality of sweetness: significantly better overall balance and quality of sweetness
  sweetness: much sweeter
Expert tasters [13]
  mouthfeel: better mouthfeel
  profile: rounded profile
  sweetness enhancement: significant sweetness enhancement
  upfront sweetness enhancement: upfront sweetness enhancement
Expert tasters [14]
  mouthfeel: better mouthfeel
  offnotes: decreased offnotes
  profile: rounded profile
  sweetness enhancement: significant sweetness enhancement
  upfront sweetness enhancement: upfront sweetness enhancement
